Reference: patent US20240293395A1, “NALTREXONE FOR IMPROVING THE […] OF 5-HT RECEPTOR SUBTYPE 2A, 2B or 2C AGONISTS” (LDN Pharma Limited, priority 2021, published 2024)

Columns and labels:
[1] = system: 5-HT receptor 2B (HTR2B), mRNA; assay: Microarray gene expression in CD3+ lymphocytes, HTR2B probe ILMN_1735764; type: cell-based, human; conditions: 4 h, Illumina HT12-v3 array
Procedure: (§1) CD3+ lymphocytes were isolated from the blood of haematologically normal volunteers. Cells placed into 25 cm3 flasks at a concentration of 1×10^6/ml, and left to equilibrate in an incubator with a humidified atmosphere and 5% CO2 in air at 37° C. […] RNA extraction was performed using Trizol according to standard procedures, before being processed for microarray analysis according to the standard methodologies. Briefly, equal amounts of biotinylated cRNA was hybridised to the Illumina human HT12-v3 arrays for 18 h and subsequently processed according to manufacturer's instructions before scanning on an Illumina BeadArray Reader. The image data were processed using default values in GenomeStudio v2009.1 with imputation of missing data, before loading onto GeneSpring v9.0 for data normalisation and filtering. Data analyses were performed using Excel software, and the ratio of gene expression signals in treated vs. untreated calculated.

[2] = system: mRNA for one or more of 5-HT2A, 5-HT2B or 5-HT2C receptor proteins; assay: Microarray gene expression in CD3+ lymphocytes, summary statement over 5-HT2 receptors; type: cell-based, human; conditions: both higher dose (10 uM) and low dose (10 nM) naltrexone, 4 h
Procedure: as §1

O=C1CC[C@@]2(O)[C@H]3Cc4ccc(O)c5c4[C@@]2(CCN3CC2CC2)[C@H]1O5 [NTX, morphinan-6-one, 17-(cyclopropylmethyl)-4,5-epoxy-3,14-dihydroxy-(5α)]
gene expression signal, LDN ([1]; low dose naltrexone 10 nM): 147.45 | gene expression signal, NTX ([1]; naltrexone 10 uM): 177.95 | levels of mRNA for one or more of 5-HT2A, 5-HT2B or 5-HT2C receptor proteins [2]: selectively increase the levels of mRNA
